Test results: paper PMC9494960, “Antiamoebic Activity of Imidazothiazole Derivatives against Opportunistic Pathogen Acanthamoeba castellanii” (Antibiotics, 2022)

Legend:
[1] = tested on: A. castellanii genotype T4 (ATCC 50492) trophozoites; assay: Amoebicidal assay (Trypan blue exclusion, haemocytometer counting); format: cell-based, Acanthamoeba castellanii; settings: for Amoebicidal Activity Inhibition % ± SEM: 50 µM concentration, Supplementary Table S1; for amoebicidal effects / antiamoebic activity against A. castellanii: 50 µM, 24 h, 30 °C; for IC50: tested at 12.5, 25, 50 and 100 µM against A. castellanii
Procedure: A. castellanii genotype T4 (ATCC 50492) trophozoites were used in this study. The amoebae were axenically cultivated at 30 °C in T-75 cm^3 culture flask using a proteose-peptone yeast extract-glucose (PYG) broth culture. Upon confluency, amoeba cultured flask was placed on ice for 10 min followed by gently tapping to dislodge the adhered trophozoites. Next, culture was centrifuged at 3000× g for 5 min. The supernatant was discarded and the pellet was re-suspended in 1 mL of Roswell Park Memorial Institute (RPMI) media. Finally, amoebae were counted via haemocytometer microscopically and the desired initial inoculum (5 × 10^5) was adjusted and used in different assays. Different molecules were tested against A. castellanii to examine their antiamoebic effects as previously reported. Briefly, A. castellanii (5 × 10^5) were incubated with 50 µM of the tested compounds for 24 h at 30 °C with a final assays volume of 0.5 mL in a 24-well plate. For controls, amoebae cultured in RPMI alone and with 0.25% sodium dodecyl sulfate (SDS) was taken as negative and positive control, respectively. Finally, each well was stained with Trypan blue (0.1%) and viable amoebae trophozoites were enumerated by haemocytometer. In some trails, these compounds were tested at different concentrations (12.5, 25, 50 and 100 µM) to determine their 50% inhibitory concentration (IC50) against A. castellanii.

[2] = tested on: A. castellanii binding to HeLa cells; assay: Adhesion assay: amoebae binding to human cells; format: cell-based, Acanthamoeba castellanii; settings: amoebae pre-treated with 50 µM for 2 h; 60 min on HeLa monolayer
Procedure: Adhesion assays were performed to determine how the tested molecules affect the binding capability of amoebae to human cells. Firstly, A. castellanii (5 ×10^5) trophozoites were treated with 50 µM of the compounds in serum-free RPMI medium at 30 °C for 2 h. Next, pre-treated amoebae were centrifuged at 3000× g for 5 min and re-suspended the amoeba in 200 µL of RPMI medium. The total assay volume including pre-treated amoeba was transferred to a confluent HeLa cell monolayer cultured in 96-well plates. For control, amoebae trophozoites alone were added to HeLa cell monolayer. The plates were incubated for 60 min at 37 °C with 5% CO2 and 95% humidity and amoebae (unbound) were then counted by haemocytometer. Percent bound amoebae was calculated using the following formula: % amoebae (bound) = 100 − amoebae (unbound)(1)

[3] = tested on: A. castellanii trophozoites; assay: Encystation assay; format: cell-based, Acanthamoeba castellanii; settings: 50 µM, 16% glucose, 30 °C, 48–72 h; negative control 100%
Procedure: Encystation assays were performed to determine the effects of the tested compounds to prevent the differentiation of A. castellanii trophozoites into the cyst form and 50 µM of the tested compounds were utilized. Briefly, A. castellanii (1 × 10^6) trophozoites were incubated with these compounds with 16% filter-sterilized glucose (as encystation medium) at 30 °C 48–72 h. A. castellanii cultured alone in 16% glucose was taken as negative control. After this incubation, 0.1% sodium dodecyl sulfate (SDS) was added to each well and agitated the plate for 20 min. The SDS resistant cysts were enumerated using a haemocytometer and data was recoded.

human cell lines = assay: MTT assay (EC50/CC50 and MNTD90); format: cell-based; settings: for CC50: 50% effective/cytotoxic concentration (CC50), tested at 12.5–100 µM; for EC90: Maximum Non-Toxic Dose, read-out: MNTD/EC90
[4] = tested on: A. castellanii-mediated HeLa cell death; assay: Amoeba-mediated host cell cytotoxicity (cytopathogenicity assay, LDH); format: cell-based, Acanthamoeba castellanii; settings: amoebae pre-treated with 50 µM for 2 h; HeLa overnight; negative control amoeba + cells 100%
Procedure: Cytopathogenicity assays were accomplished to determine the amoeba-mediated host cell death. A. castellanii (5 × 10^5) trophozoites were treated with 50 µM of the tested molecules at 30 °C for 2 h. Culture containing pre-treated amoebae was centrifuged at 3000× g for 5 min and pellet was re-suspended in 200 µL of serum free RPMI. The whole assay volume with pre-treated amoebae was transferred to HeLa cell monolayer cultured in a 96 well plates. Next, the plates were kept for overnight at 37 °C with 95% humidity and 5% CO2. Finally, amoeba-mediated host cell cytotoxicity was evaluated indirectly by measuring the amount of LDH enzyme released into cell media by damaged cells, as reported earlier.

V600E-B-RAF = tested on: V600E-B-RAF; design: method as in PMID 32962435; settings: cited from earlier work
C-RAF = tested on: C-RAF; design: method as in PMID 32962435; settings: cited from earlier work
A. castellanii = tested on: A. castellanii; design: method as in PMID 34959694; settings: cited from earlier work

| Structure (SMILES) | Amoebicidal Activity Inhibition % ± SEM [1] | amoebicidal effects / antiamoebic activity against A. castellanii [1] [%] | IC50 [1] [µM] | inhibition of amoebae binding to human cells [2] [%] | encystation blocked (trophozoites prevented from converting into cysts) [3] [%] | CC50 (human cell lines) [µM] | EC90 (human cell lines) [µM] | amoeba-mediated host cell death reduced up to [4] [%] | inhibitory effects against V600E-B-RAF kinase (V600E-B-RAF) | inhibitory effects against C-RAF kinase (C-RAF) | concentration that prevented excystment in A. castellanii (A. castellanii) [µM] |
| --- | --- | --- | --- | --- | --- | --- | --- | --- | --- | --- | --- |
| O=C(NCCNc1nccc(-c2c(-c3ccc(F)cc3)nc3sccn23)n1)c1cc(C(F)(F)F)cc(C(F)(F)F)c1 [Compound 1i] | 55.05% ± 1.25% | 55 | 43.1 | 42 | 60 | 1410 | 90.9 | 45 | – | – | – |
| COc1cccc(-c2nc3sccn3c2-c2ccnc(NCCNC(=O)Nc3cccc(C(F)(F)F)c3)n2)c1 [Compound 1m] | 69.17% ± 2.39% | 70 | 30 | 61 | 72 | 313 | 29.5 | 33 | modest inhibitory effects | modest inhibitory effects | – |
| O=C(NCCNc1nccc(-c2c(-c3cccc(O)c3)nc3sccn23)n1)c1ccc(N2CCOCC2)c(C(F)(F)F)c1 [Compound 1zb] | 67.00% ± 3.19% | 67 | 32.4 | 55 | 78 | 434 | 24.1 | 46 | – | – | – |
| CNCC(=O)OCc1cccnc1N(C)C(=O)OC(C)[n+]1cnn(C[C@](O)(c2cc(F)ccc2F)[C@@H](C)c2nc(-c3ccc(C#N)cc3)cs2)c1.O=S(=O)([O-])O (stereo partly drawn) [isavuconazonium sulfate] | – | – | – | – | – | – | – | – | – | – | 136 |
